Measurements: US9643999B2 (Bristol-Myers Squibb Company, priority 2012, dated 2017)
Read-outs that look alike come from different tables or passages of the source.

What was measured:
HCV genotype 1a replicon = assay: HCV replicon luciferase reporter assay, genotype 1a (LE_1a); assay type: cell-based; settings: Hepatitis C virus, 72 h, HUH-7 cells, genotype 1a H77 replicon, 3 days incubation, Renilla luciferase
From the text: (§1) An HCV replicon whole cell system was established as described by Lohmann V, Korner F, Koch J, Herian U, Theilmann L, Bartenschlager R., Science 285(5424):110-3 (1999) and modified to introduce a luciferase reporter, as first described by Krieger et al (Krieger N, Lohmann V, and Bartenschlager R, J. Virol. 75(10):4614-4624 (2001)). cDNA encoding a humanized form of the Renilla luciferase gene and a linker sequence fused directly to the 3′-end of the luciferase gene were introduced into the replicon construct using an Asc1 restriction site located in core, directly upstream of the neomycin marker gene. The adaptive mutation at position 1179 (serine to isoleucine) was also introduced (Blight K J, Kolykhalov, A A, Rice, C M, Science 290(5498):1972-1974). A stable cell line constitutively expressing this HCV replicon construct was generated by first linearizing plasmid DNAs with ScaI. RNA transcripts were synthesized in vitro using the T7 MegaScript transcription kit (Ambion, Austin, Tex.) according to manufacturer's directions. In vitro transcripts of the cDNA were transfected into the human hepatoma cell line, HUH-7. […] Resulting cell lines were characterized for positive and negative strand RNA production and protein production over time.
A stable HCV replicon luciferase reporter cell line representing the genotype 1a H77 strain (Yanagi M, Purcell R H, Emerson S U, et al. Transcripts from a single full-length cDNA clone of hepatitis C virus are infectious when directly transfected into the liver of a chimpanzee. Proc Natl Acad Sci USA 1997; 94(16):8738-8743) was generated as described previously for the genotype 1b(Con1) replicon luciferase cell line. The replicon construct was modified by introducing mutations were introduced into the genes encoding the NS3 helicase domain (proline replaced by leucine at position 1496) and NS5A (serine to isoleucine at position 2204) to improve replication in cell culture.
(§2) HCV replicon luciferase assays were developed to monitor the inhibitory effects of compounds described in the disclosure on HCV genotypes 1a and 1b viral replication. HUH-7 cells, constitutively expressing the HCV replicon, were grown in Dulbecco's Modified Eagle Media (DMEM) (Gibco-BRL) containing 10% Fetal calf serum (FCS) (Sigma) and 1 mg/mL G418 (Gibco-BRL). Compounds were serially diluted 3 folds in DMSO for a twenty-point titration and subsequently transferred to sterile 384-well tissue-culture treated plates (Corning cat #3571). The plates were then seeded with 50 μL of cells at a density of 3.0×10^3 cells/well in DMEM containing 4% FCS (final DMSO concentration at 0.5%). After 3 days incubation at 37° C., cells were analyzed for Renilla Luciferase activity using the EnduRen as substrate (Promega cat #E6485). The EnduRen substrate was diluted in DMEM and then added to the plates to a final concentration of 7.5 μM. The plates were incubated for 2 hrs at 37° C. and then read immediately for 30 seconds with Viewlux Imager (PerkinElmer) using a luminescence program. To assess cytotoxicity of compounds, CC50 values were generated by multiplexing the EnduRen-containing plates with Cell Titer-Blue (Promega, cat #G8082). Cell-Titer Blue (3 μL) was added to each well and incubated for 8 hrs at 37° C. The fluorescence signal from each well was read, with an excitation wavelength at 525/10 nm and an emission wavelength of 598/10 nm, using the Viewlux Imager.
(§3) The EC50 values for compounds were calculated by using a four-parameter logistic equation: y=A+((B−A)/(1+((C/x)^D))), where A and B denotes minimal and maximal % inhibition, respectively, C is the EC50, D is the hill slope and x represents compound concentration.

HCV genotype 1b replicon = assay: HCV replicon luciferase reporter assay, genotype 1b (LE_1b); assay type: cell-based; settings: Hepatitis C virus, 72 h, HUH-7 cells, genotype 1b (Con1) replicon, 3 days incubation, Renilla luciferase
From the text: as §1, with “time. […]” for “time.”
as §2, §3

Row | Compound | EC50 (HCV genotype 1a replicon; read-out: LE_1a (EC50)) | EC50 (HCV genotype 1a replicon; read-out: LE_1a (EC50, range)) | EC50 (HCV genotype 1b replicon; read-out: LE_1b (EC50)) | EC50 (HCV genotype 1b replicon; read-out: LE_1b (EC50, range))
1 | CC[C@@H]1C[C@H](C)CC/C=C\[C@@H]2C[C@@]2(C(=O)NS(=O)(=O)C2(C)CC2)NC(=O)[C@@H]2C[C@@H](Oc3cc(-n4ccc(C(C)C)n4)nc4cc(OC)ccc34)CN2C(=O)[C@H]1NC(=O)OC(C)(C)C [Compound 4294] | 0.85 nM | 0.51 to 1 nM | 0.89 nM | 0.51 to 1 nM
2 | COc1ccc2c(O[C@@H]3C[C@H]4C(=O)N[C@]5(C(=O)NS(=O)(=O)C6(C)CC6)C[C@H]5/C=C\CC[C@@H](C)C[C@@H](C)[C@H](NC(=O)OC(C)(C)C(F)(F)F)C(=O)N4C3)cc(-n3ccc(C(C)C)n3)nc2c1 [Compound 4299] |  | 0.51 to 1 nM |  | 0.51 to 1 nM
3 | COc1ccc2c(O[C@@H]3C[C@H]4C(=O)N[C@]5(C(=O)NS(=O)(=O)C6(C)CC6)C[C@H]5/C=C\CC[C@@H](C)C[C@@H](C)[C@H](NC(=O)OC(C)(C)C(F)(F)F)C(=O)N4C3)cc(-n3ccc(C(F)(F)F)n3)nc2c1 [Compound 4301] |  | 0.51 to 1 nM |  | 0.51 to 1 nM
4 | COc1ccc2nc(O[C@@H]3C[C@H]4C(=O)N[C@]5(C(=O)NS(=O)(=O)C6(C)CC6)C[C@H]5/C=C\CC[C@@H](C)C[C@@H](C)[C@H](NC(=O)OC(C)(C)C)C(=O)N4C3)c(C3CC3)nc2c1 [Compound 4303] |  | 1.01 to 5 nM |  | 1.01 to 5 nM
5 | CC[C@@H]1C[C@H](C)CC/C=C\[C@@H]2C[C@@]2(C(=O)NS(=O)(=O)C2CC2)NC(=O)[C@@H]2C[C@@H](Oc3nc4ccc(OC)cc4nc3C3CC3)CN2C(=O)[C@H]1NC(=O)OC(C)(C)C [Compound 4306] |  | 5.01 to 35 nM |  | 5.01 to 35 nM
6 | CC[C@@H]1C[C@H](C)CC/C=C\[C@@H]2C[C@@]2(C(=O)NS(=O)(=O)C2CC2)NC(=O)[C@@H]2C[C@@H](Oc3nc4cc(OC)ccc4nc3C3CC3)CN2C(=O)[C@H]1NC(=O)OC(C)(C)C [Compound 4307] |  | 1.01 to 5 nM |  | 1.01 to 5 nM
7 | CC[C@@H]1C[C@H](C)CC/C=C\[C@@H]2C[C@@]2(C(=O)NS(=O)(=O)C2CC2)NC(=O)[C@@H]2C[C@@H](Oc3nc4ccc(OC)cc4nc3C3CC3)CN2C(=O)[C@H]1NC(=O)OC(C)(C)C(F)(F)F [Compound 4308] |  | 5.01 to 35 nM |  | 5.01 to 35 nM
8 | CC[C@@H]1C[C@H](C)CC/C=C\[C@@H]2C[C@@]2(C(=O)NS(=O)(=O)C2CC2)NC(=O)[C@@H]2C[C@@H](Oc3nc4cc(OC)ccc4nc3C3CC3)CN2C(=O)[C@H]1NC(=O)OC(C)(C)C(F)(F)F [Compound 4309] | 3.51 nM | 1.01 to 5 nM | 2.31 nM | 1.01 to 5 nM
9 | CC[C@@H]1C[C@H](C)CC/C=C\[C@@H]2C[C@@]2(C(=O)NS(=O)(=O)C2CC2)NC(=O)[C@@H]2C[C@@H](Oc3nc4cccnc4nc3C(F)(F)F)CN2C(=O)[C@H]1NC(=O)OC(C)(C)C [Compound 4329, tert-butyl((2R,6S,7R,9R,13aS,14aR,16aS,Z)-14a-((cyclopropylsulfonyl)carbamoyl)-7-ethyl-9-methyl-5,16-dioxo-2-((3-(trifluoromethyl)pyrido[2,3-b]pyrazin-2-yl)oxy)-1,2,3,5,6,7,8,9,10,11,13a,14,14a,15,16,16a-hexadecahydrocyclopropa[e]pyrrolo[1,2-a][1,4]diazacyclopentadecin-6-yl)carbamate] |  | 35 to 145 nM |  | 35 to 145 nM
10 | CC[C@@H]1C[C@H](C)CC/C=C\[C@@H]2C[C@@]2(C(=O)NS(=O)(=O)C2CC2)NC(=O)[C@@H]2C[C@@H](Oc3nc4ncccc4nc3C(F)(F)F)CN2C(=O)[C@H]1NC(=O)OC(C)(C)C [Compound 4330, tert-butyl((2R,6S,7R,9R,13aS,14aR,16aS,Z)-14a-((cyclopropylsulfonyl)carbamoyl)-7-ethyl-9-methyl-5,16-dioxo-2-((2-(trifluoromethyl)pyrido[2,3-b]pyrazin-3-yl)oxy)-1,2,3,5,6,7,8,9,10,11,13a,14,14a,15,16,16a-hexadecahydrocyclopropa[e]pyrrolo[1,2-a][1,4]diazacyclopentadecin-6-yl)carbamate] |  | 5.01 to 35 nM |  | 5.01 to 35 nM
11 | CC[C@@H]1C[C@H](C)CC/C=C\[C@@H]2C[C@@]2(C(=O)NS(=O)(=O)C2(C)CC2)NC(=O)[C@@H]2C[C@@H](Oc3cc(-n4ccc(C(C)C)n4)nc4cc(OC)ccc34)CN2C(=O)[C@H]1NC(=O)OC(C)(C)C(F)(F)F [Compound 4358] |  | 1.01 to 5 nM |  | 1.01 to 5 nM
12 | C[C@@H]1CC/C=C\[C@@H]2C[C@@]2(C(=O)NS(=O)(=O)C2(C)CC2)NC(=O)[C@@H]2C[C@@H](Oc3nccc4c5c(ccc34)CCO5)CN2C(=O)[C@@H](NC(=O)OC(C)(C)C)[C@H](C)C1 [Compound 5491, tert-butyl((2R,6S,7R,9R,13aS,14aR,16aS,Z)-2-((2,3-dihydrofuro[2,3-f]isoquinolin-6-yl)oxy)-7,9-dimethyl-14a-(((1-methylcyclopropyl)sulfonyl)carbamoyl)-5,16-dioxo-1,2,3,5,6,7,8,9,10,11,13a,14,14a,15,16,16a-hexadecahydrocyclopropa[e]pyrrolo[1,2-a][1,4]diazacyclopentadecin-6-yl)carbamate] | 5.41 nM | 5.01 to 35 nM | 2.57 nM | 1.01 to 5 nM
13 | CC[C@@H]1C[C@H](C)CC/C=C\[C@@H]2C[C@@]2(C(=O)NS(=O)(=O)C2(C)CC2)NC(=O)[C@@H]2C[C@@H](Oc3nccc4c5c(ccc34)CCO5)CN2C(=O)[C@H]1NC(=O)OC(C)(C)C [Compound 5493, tert-butyl((2R,6S,7R,9R,13aS,14aR,16aS,Z)-2-((2,3-dihydrofuro[2,3-f]isoquinolin-6-yl)oxy)-7-ethyl-9-methyl-14a-(((1-methylcyclopropyl)sulfonyl)carbamoyl)-5,16-dioxo-1,2,3,5,6,7,8,9,10,11,13a,14,14a,15,16,16a-hexadecahydrocyclopropa[e]pyrrolo[1,2-a][1,4]diazacyclopentadecin-6-yl)carbamate] |  | 35 to 145 nM |  | 5.01 to 35 nM
14 | C[C@@H]1CC/C=C\[C@@H]2C[C@@]2(C(=O)NS(=O)(=O)C2(C)CC2)NC(=O)[C@@H]2C[C@@H](Oc3nccc4c5c(ccc34)CCO5)CN2C(=O)[C@@H](NC(=O)OC(C)(C)C(C)(F)F)[C@H](C)C1 [Compound 5495] |  | 1.01 to 5 nM |  | 0.51 to 1 nM
15 | C[C@@H]1CC/C=C\[C@@H]2C[C@@]2(C(=O)NS(=O)(=O)C2(C)CC2)NC(=O)[C@@H]2C[C@@H](Oc3nccc4c5c(ccc34)CCO5)CN2C(=O)[C@@H](NC(=O)OC(C)(C)C(F)(F)F)[C@H](C)C1 [Compound 5497] |  | 5.01 to 35 nM |  | 1.01 to 5 nM
16 | CC[C@@H]1C[C@H](C)CC/C=C\[C@@H]2C[C@@]2(C(=O)NS(=O)(=O)C2(C)CC2)NC(=O)[C@@H]2C[C@@H](Oc3nccc4c5c(ccc34)CCO5)CN2C(=O)[C@H]1NC(=O)OC(C)(C)C(F)(F)F [Compound 5500] |  | 5.01 to 35 nM |  | 5.01 to 35 nM
